Results published in patent US20080051420A1, “New Compounds 317” (AstraZeneca AB, priority 2006, published 2008).
Like-named read-outs stand apart in the source and are kept apart here.

Molecular target: T1, human β-secretase (Homo sapiens, UniProt P56817)
T1 construct: The soluble part of the human β-secretase (AA 1-AA 460) was cloned; made in house
Assay: TR-FRET assay (β-secretase enzyme, sBACE-Fc)
Type: biochemical
Protocol: The enzyme used in the IGEN Cleavage-, Fluorescent-, TR-FRET- and BiaCore assays is described as follows:
The soluble part of the human β-secretase (AA 1-AA 460) was cloned into the ASP2-F10-1-IRES-GFP-neoK mammalian expression vector. The gene was fused to the Fc domain of IgG1 (affinity tag) and stably cloned into HEK 293 cells. Purified sBACE-Fc is stored in Tris buffer, pH 9.2 and has a purity of 95%.
Enzyme was diluted to 6 μg/mL and the substrate (Europium)[…](Qsy7) to 200 nM in reaction buffer (NaAcetate, chaps, triton x-100, EDTA pH 4.5). Compounds were diluted to the desired concentration in dimethyl sulfoxide (final dimethyl sulfoxide concentration in assay is 5%). […] Enzyme (9 μL) and 1 μL of compound in dimethyl sulfoxide was added to the plate, mixed and pre-incubated for 10 min. Substrate (10 μL) was added and the reaction proceeded in the dark for 15 min at RT. The reaction was stopped with the addition of 7 μL NaAcetate, pH 9. […] The dimethyl sulfoxide control defined the 100% activity level and 0% activity was defined by exclusion of the enzyme (using reaction buffer instead).

[1] = read-out: IC50 in TR-FRET assay

T1 sequence (P56817 22-460): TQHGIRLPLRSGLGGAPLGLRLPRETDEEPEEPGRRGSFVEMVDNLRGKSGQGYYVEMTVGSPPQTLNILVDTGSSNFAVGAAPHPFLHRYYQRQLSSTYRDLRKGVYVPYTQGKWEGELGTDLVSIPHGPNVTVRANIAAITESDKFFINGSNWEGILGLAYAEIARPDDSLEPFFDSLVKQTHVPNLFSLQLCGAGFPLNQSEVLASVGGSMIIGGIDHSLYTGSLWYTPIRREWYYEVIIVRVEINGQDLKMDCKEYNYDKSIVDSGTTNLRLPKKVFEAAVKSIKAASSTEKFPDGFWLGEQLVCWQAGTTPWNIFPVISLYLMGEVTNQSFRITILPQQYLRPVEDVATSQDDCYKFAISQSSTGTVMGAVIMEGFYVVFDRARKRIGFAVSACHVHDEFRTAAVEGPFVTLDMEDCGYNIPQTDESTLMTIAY

Compound | IC50 [1] [nM] | IC50 [nM]
4-[5-Amino-7-(3′,5′-dichlorobiphenyl-3-yl)-2,7-dihydro-3H-imidazo[1,5-a]imidazol-7-yl]phenyl methanesulfonate 0.25 acetate [Example 75] | 146 | 
COc1cccc(-c2cccc(C3(c4ccc(OS(C)(=O)=O)cc4)N=C(N)N4CCCN=C43)c2)c1 (stereo not shown) [Example 31, 4-[6-Amino-8-(3′-methoxybiphenyl-3-yl)-2,3,4,8-tetrahydroimidazo[1,5-a]pyrimidin-8-yl]phenyl methanesulfonate acetate] | 156 | 
CS(=O)(=O)Oc1ccc(C2(c3cccc(-c4cnccn4)c3)N=C(N)N3CCCN=C32)cc1 (stereo not shown) [Example 32, 4-[6-Amino-8-(3-pyrazin-2-ylphenyl)-2,3,4,8-tetrahydroimidazo[1,5-a]pyrimidin-8-yl]phenyl methanesulfonate acetate] | 501 | 
CS(=O)(=O)Oc1ccc(C2(c3cccc(-c4cncc(F)c4)c3)N=C(N)N3CCCN=C32)cc1 (stereo not shown) [Example 33, 4-{6-Amino-8-[3-(5-fluoropyridin-3-yl)phenyl]-2,3,4,8-tetrahydroimidazo[1,5-a]pyrimidin-8-yl}phenyl methanesulfonate acetate] | 397 | 
COc1cncc(-c2cccc(C3(c4ccc(OS(C)(=O)=O)cc4)N=C(N)N4CCCN=C43)c2)c1 (stereo not shown) [Example 34, 4-{6-Amino-8-[3-(5-methoxypyridin-3-yl)phenyl]-2,3,4,8-tetrahydroimidazo[1,5-a]pyrimidin-8-yl}phenyl methanesulfonate acetate] | 161 | 
CS(=O)(=O)Oc1ccc(C2(c3cccc(-c4cccc(OC(F)(F)F)c4)c3)N=C(N)N3CCCN=C32)cc1 (stereo not shown) [Example 41, 4-{6-Amino-8-[3′-(trifluoromethoxy)biphenyl-3-yl]-2,3,4,8-tetrahydroimidazo[1,5-a]pyrimidin-8-yl}phenyl methanesulfonate 0.5 acetate] | 981 | 
CCOc1cccc(-c2cccc(C3(c4ccc(OS(C)(=O)=O)cc4)N=C(N)N4CCCN=C43)c2)c1 (stereo not shown) [Example 44, 4-[6-Amino-8-(3′-ethoxybiphenyl-3-yl)-2,3,4,8-tetrahydroimidazo[1,5-a]pyrimidin-8-yl]phenyl methanesulfonate 0.5 acetate] | 471 | 
COc1ccc(C2(c3cccc(-c4cc(OC)cc(OS(C)(=O)=O)c4)c3)N=C(N)N3CCCN=C32)cc1 (stereo not shown) [Example 52, 3′-[6-Amino-8-(4-methoxyphenyl)-2,3,4,8-tetrahydroimidazo[1,5-a]pyrimidin-8-yl]-5-methoxybiphenyl-3-yl methanesulfonate acetate] | 43 | 
CCCS(=O)(=O)Oc1ccc(C2(c3cccc(-c4cnccn4)c3)N=C(N)N3CCCN=C32)cc1 (stereo not shown) [Example 54, 4-[6-Amino-8-(3-pyrazin-2-ylphenyl)-2,3,4,8-tetrahydroimidazo[1,5-a]pyrimidin-8-yl]phenyl propane-1-sulfonate acetate] | 347 | 
CCCS(=O)(=O)Oc1ccc(C2(c3cccc(-c4cccc(OC)c4)c3)N=C(N)N3CCCN=C32)cc1 (stereo not shown) [Example 55, 4-[6-Amino-8-(3′-methoxybiphenyl-3-yl)-2,3,4,8-tetrahydroimidazo[1,5-a]pyrimidin-8-yl]phenyl propane-1-sulfonate 0.75 acetate] | 139 | 
CCCS(=O)(=O)Oc1ccc(C2(c3cccc(-c4cccc(Cl)c4)c3)N=C(N)N3CCCN=C32)cc1 (stereo not shown) [Example 57, 4-[6-Amino-8-(3′-chlorobiphenyl-3-yl)-2,3,4,8-tetrahydroimidazo[1,5-a]pyrimidin-8-yl]phenyl propane-1-sulfonate 0.75 acetate] | 71 | 
CCCS(=O)(=O)Oc1ccc(C2(c3cccc(-c4cccnc4F)c3)N=C(N)N3CCCN=C32)cc1 (stereo not shown) [Example 59, 4-{6-Amino-8-[3-(2-fluoropyridin-3-yl)phenyl]-2,3,4,8-tetrahydroimidazo[1,5-a]pyrimidin-8-yl}phenyl propane-1-sulfonate acetate] | 221 | 
CCCS(=O)(=O)Oc1ccc(C2(c3cccc(-c4cccc(C(F)(F)F)c4)c3)N=C(N)N3CCCN=C32)cc1 (stereo not shown) [Example 60, 4-{6-Amino-8-[3′-(trifluoromethyl)biphenyl-3-yl]-2,3,4,8-tetrahydroimidazo[1,5-a]pyrimidin-8-yl}phenyl propane-1-sulfonate 0.5 acetate] | 493 | 
CCCS(=O)(=O)Oc1ccc(C2(c3cccc(-c4ccc(F)c(OC)c4)c3)N=C(N)N3CCCN=C32)cc1 (stereo not shown) [Example 61, 4-[6-Amino-8-(4′-fluoro-3′-methoxybiphenyl-3-yl)-2,3,4,8-tetrahydroimidazo[1,5-a]pyrimidin-8-yl]phenyl propane-1-sulfonate 0.75 acetate] | 671 | 
CCCS(=O)(=O)Oc1ccc(C2(c3cccc(-c4cccc(Cl)c4F)c3)N=C(N)N3CCCN=C32)cc1 (stereo not shown) [Example 62, 4-[6-Amino-8-(3′-chloro-2′-fluorobiphenyl-3-yl)-2,3,4,8-tetrahydroimidazo[1,5-a]pyrimidin-8-yl]phenyl propane-1-sulfonate 0.75 acetate] | 254 | 
CCCS(=O)(=O)Oc1ccc(C2(c3cccc(-c4cc(Cl)ccc4Cl)c3)N=C(N)N3CCCN=C32)cc1 (stereo not shown) [Example 63, 4-[6-Amino-8-(2′,5′-dichlorobiphenyl-3-yl)-2,3,4,8-tetrahydroimidazo[1,5-a]pyrimidin-8-yl]phenyl propane-1-sulfonate 0.75 acetate] | 912 | 
CCCS(=O)(=O)Oc1ccc(C2(c3cccc(-c4cncc(OC)c4)c3)N=C(N)N3CCCN=C32)cc1 (stereo not shown) [Example 64, 4-{6-Amino-8-[3-(5-methoxypyridin-3-yl)phenyl]-2,3,4,8-tetrahydroimidazo[1,5-a]pyrimidin-8-yl}phenyl propane-1-sulfonate 0.75 acetate] | 96 | 
COc1cccc(-c2cccc(C3(c4ccc(OS(=O)(=O)C5CC5)cc4)N=C(N)N4CCCN=C43)c2)c1 (stereo not shown) [Example 65, 4-[6-Amino-8-(3′-methoxybiphenyl-3-yl)-2,3,4,8-tetrahydroimidazo[1,5-a]pyrimidin-8-yl]phenyl cyclopropane sulfonate 0.75 acetate] | 248 | 
NC1=NC(c2ccc(OS(=O)(=O)C3CC3)cc2)(c2cccc(-c3cc(Cl)cc(Cl)c3)c2)C2=NCCCN12 (stereo not shown) [Example 66, 4-[6-Amino-8-(3′,5′-dichlorobiphenyl-3-yl)-2,3,4,8-tetrahydroimidazo[1,5-a]pyrimidin-8-yl]phenyl cyclopropanesulfonate 0.75 acetate] | 66 | 
NC1=NC(c2ccc(OS(=O)(=O)C3CC3)cc2)(c2cccc(-c3cccc(Cl)c3)c2)C2=NCCCN12 (stereo not shown) [Example 67, 4-[6-Amino-8-(3′-chlorobiphenyl-3-yl)-2,3,4,8-tetrahydroimidazo[1,5-a]pyrimidin-8-yl]phenyl cyclopropane sulfonate 0.75 acetate] | 61 | 
NC1=NC(c2ccc(OS(=O)(=O)C3CC3)cc2)(c2cccc(-c3cccnc3F)c2)C2=NCCCN12 (stereo not shown) [Example 69, 4-{6-Amino-8-[3-(2-fluoropyridin-3-yl)phenyl]-2,3,4,8-tetrahydroimidazo[1,5-a]pyrimidin-8-yl}phenyl cyclopropane sulfonate 0.75 acetate] | 313 | 
NC1=NC(c2ccc(OS(=O)(=O)C3CC3)cc2)(c2cccc(-c3cccc(C(F)(F)F)c3)c2)C2=NCCCN12 (stereo not shown) [Example 70, 4-{6-Amino-8-[3′-(trifluoromethyl)biphenyl-3-yl]-2,3,4,8-tetrahydroimidazo[1,5-a]pyrimidin-8-yl}phenyl cyclopropane sulfonate 0.75 acetate] | 620 | 
NC1=NC(c2ccc(OS(=O)(=O)C3CC3)cc2)(c2cccc(-c3cccc(Cl)c3F)c2)C2=NCCCN12 (stereo not shown) [Example 71, 4-[6-Amino-8-(3′-chloro-2′-fluorobiphenyl-3-yl)-2,3,4,8-tetrahydroimidazo[1,5-a]pyrimidin-8-yl]phenyl cyclopropane sulfonate 0.75 acetate] | 390 | 
NC1=NC(c2ccc(OS(=O)(=O)C3CC3)cc2)(c2cccc(-c3cc(Cl)ccc3Cl)c2)C2=NCCCN12 (stereo not shown) [Example 72, 4-[6-Amino-8-(2′,5′-dichlorobiphenyl-3-yl)-2,3,4,8-tetrahydroimidazo[1,5-a]pyrimidin-8-yl]phenyl cyclopropane sulfonate 0.5 acetate] | 644 | 
COc1ccc(C2(c3cccc(-c4cc(OC)cc(OS(C)(=O)=O)c4)c3)N=C(N)N3CCN=C32)cc1 (stereo not shown) [Example 73, 3′-[5-Amino-7-(4-methoxyphenyl)-2,7-dihydro-3H-imidazo[1,5-a]imidazol-7-yl]-5-methoxybiphenyl-3-yl methanesulfonate acetate] |  | 190
COc1cccc(-c2cccc(C3(c4ccc(OS(C)(=O)=O)cc4)N=C(N)N4CCN=C43)c2)c1 (stereo not shown) [Example 74, 4-[5-Amino-7-(3′-methoxybiphenyl-3-yl)-2,7-dihydro-3H-imidazo[1,5-a]imidazol-7-yl]phenyl methanesulfonate 0.25 acetate] | 449 | 
CS(=O)(=O)Oc1ccc(C2(c3cccc(-c4cccc(Cl)c4)c3)N=C(N)N3CCN=C32)cc1 (stereo not shown) [Example 76, 4-[5-Amino-7-(3′-chlorobiphenyl-3-yl)-2,7-dihydro-3H-imidazo[1,5-a]imidazol-7-yl]phenyl methanesulfonate 0.5 acetate] | 226 | 
CS(=O)(=O)Oc1ccc(C2(c3cccc(-c4cccnc4)c3)N=C(N)N3CCN=C32)cc1 (stereo not shown) [Example 77, 4-[5-Amino-7-(3-pyridin-3-ylphenyl)-2,7-dihydro-3H-imidazo[1,5-a]imidazol-7-yl]phenyl methanesulfonate 0.5 acetate] | 1530 | 
